Blank lines part the entries; values can stand above or below the compound they belong to. Residues, ends and D or L forms follow the SMILES beside them. *: point of attachment. Biotin = O=C1N[C@H]2[C@H](CS[C@H]2CCCCC(=O)*)N1; Ahx = NCCCCCC(=O)O
Experiments:
[1] = system: fibroblasts from lungs of patients with systemic sclerosis (SSc); assay: SMA and Collagen 1A2 RNA in SSc lung fibroblasts; type: cell-based, human
Method: Fibroblasts were treated with TGFbeta with or without peptide Bio96-17 for 48 hours. RNA was extracted and levels of alpha smooth muscle actin (SMA) measured by qRT-PCR.
SSc fibroblasts were treated with 10 μg/ml BioE4-03 for 72 hours. RNA was extracted and used to measure SMA and Collagen 1A2.

[2] = system: fibroblasts from lungs of patients with Idiopathic Pulmonary Fibrosis (IPF); assay: SMA and Collagen 1A2 RNA in IPF lung fibroblasts; type: cell-based, human; conditions: IPF lung fibroblasts (FIG. 17)
tumors = assay: Histologic analysis of tumors (H&E, Masson Trichrome); type: in vivo, mouse
Method: Histological analysis of tumors treated with vehicle alone, or with BioE4-03 or Bio96 peptides was performed.

[3] = system: me-38 colon adenocarcinoma tumor cells; assay: Colon adenocarcinoma tumor growth in mice, peptide by oral gavage; type: in vivo; conditions: sMIC tolerant transgenic mice, 100 μg/mouse oral gavage twice/week
Method: For each of the experiments, descriptive statistics (means and standard deviations) for tumor volumes were calculated over time for each experimental group (i.e. Experiment 1: Control vs. BioE4 (FIG. 1); Experiment 2: PBS, Bio96, and BioE4-03 (FIG. 5)). Since tumor growth tends to be curvilinear, general linear mixed models (GLMMs) were created to estimate treatment-specific growth curves over time and to make comparisons between the peptide treatments and control. Separate GLMMs were constructed for each experiment, and each GLMM included random effects for each mouse, to control for the fact that the repeated volume measurements within a given mouse were correlated with one another. […] If a mouse's tumor grew too large, it was sacrificed; however, all tumor volumes measured prior to sacrifice were included in the modeling process. […]
sMIC tolerant transgenic (MB481 strain) mice (Liu et al, Perturbation of NK cell peripheral homeostasis accelerates prostate carcinoma metastasis. J. Clin. Invest. 123:4410, 2013) were injected with 1×10^5 me-38 colon adenocarcinoma tumor cells via subcutaneous injection When tumor size reached approximately 75 mm^3, treatment was started. start treatment at four group. […] Tumor volume was measured 3 times per week. […]

[4] = system: TRAMP C-2 mouse prostate tumor cells; assay: Prostate tumor growth in mice, peptide by oral gavage; type: in vivo; conditions: C57BL6 mice, TRAMP C-2 tumors, 50 μg/dose oral gavage twice per week, vs water control
Method: For each of the experiments, descriptive statistics (means and standard deviations) for tumor volumes were calculated over time for each experimental group (i.e. Experiment 1: Control vs. BioE4 (FIG. 1); Experiment 2: PBS, Bio96, and BioE4-03 (FIG. 5)). Since tumor growth tends to be curvilinear, general linear mixed models (GLMMs) were created to estimate treatment-specific growth curves over time and to make comparisons between the peptide treatments and control. Separate GLMMs were constructed for each experiment, and each GLMM included random effects for each mouse, to control for the fact that the repeated volume measurements within a given mouse were correlated with one another. Tumor volume served as the dependent variable in each model, while time (in days), time^2, treatment, treatment×time, and treatment×time^2 were included as independent variables. Using these models, the estimated mean tumor volumes at specific selected time points and the mean rate of change in the tumor volumes at specific selected time points were compared. If a mouse's tumor grew too large, it was sacrificed; however, all tumor volumes measured prior to sacrifice were included in the modeling process. […]
Two groups of wild type C57BL6 mice from Jax Labs were injected with TRAMP C-2 mouse prostate tumor cells in the right flank. […] Tumors were measured 3 times/week. […]

- Coll1A2 levels ([1]; 10 μg/ml, 72 hours (FIG. 16)): significant reduction
- SMA levels ([1]; 10 μg/ml, 72 hours (FIG. 16)): significant reduction
- Coll1A2 levels [2]: trend towards decrease
- SMA levels [2]: trend towards decrease
Compound: CC(C)C[C@H](NC(=O)[C@H](CC(C)C)NC(=O)[C@H](CCCNC(=N)N)NC(=O)CNC(=O)CNC(=O)[C@H](CC(C)C)NC(=O)[C@H](CC(C)C)NC(=O)[C@H](CO)NC(=O)[C@H](CO)NC(=O)[C@H](C)NC(=O)[C@H](CCC(N)=O)NC(=O)CNC(=O)[C@@H](NC(=O)[C@H](C)NC(=O)[C@H](CO)NC(=O)[C@@H]1CCCN1C(=O)[C@H](C)NC(=O)[C@H](CCC(=O)O)NC(=O)[C@@H](NC(=O)[C@H](CCCNC(=N)N)NC(=O)[C@H](Cc1c[nH]c2ccccc12)NC(=O)[C@@H](NC(=O)[C@H](CCC(=O)O)NC(=O)[C@H](CS)NC(=O)[C@H](Cc1ccc(O)cc1)NC(=O)[C@H](CO)NC(=O)CCCCCNC(=O)CCCC[C@@H]1SC[C@@H]2NC(=O)N[C@@H]21)[C@@H](C)O)[C@@H](C)O)[C@@H](C)O)C(=O)NCC(=O)N[C@@H](CCC(N)=O)C(=O)N[C@@H](CO)C(=O)N[C@@H](C)C(=O)N[C@@H](C)C(=O)N[C@@H](CO)C(=O)N[C@@H](CS)C(=O)N[C@@H](Cc1c[nH]cn1)C(=O)N[C@@H](Cc1c[nH]cn1)C(=O)N[C@@H](C)C(N)=O [BioE4-03] ({Biotin-Ahx}-SYCETWRTEAPSATGQASSLLGGRLLGQSAASCHHA-NH2)

- Coll1A2 levels ([1]; Bio96-17 treatment (FIG. 15)): significant reduction
- SMA levels ([1]; Bio96-17 treatment (FIG. 15)): significant reduction
Compound: CC(C)C[C@H](NC(=O)[C@H](CC(C)C)NC(=O)[C@H](CCCNC(=N)N)NC(=O)CNC(=O)CNC(=O)[C@H](CC(C)C)NC(=O)[C@H](CC(C)C)NC(=O)[C@H](CO)NC(=O)[C@H](CO)NC(=O)[C@H](C)NC(=O)[C@H](CCC(N)=O)NC(=O)CNC(=O)[C@@H](NC(=O)[C@H](C)NC(=O)CCCC[C@@H]1SC[C@@H]2NC(=O)N[C@@H]21)[C@@H](C)O)C(=O)NCC(=O)N[C@@H](CCC(N)=O)C(=O)N[C@@H](CO)C(=O)N[C@@H](C)C(=O)N[C@@H](C)C(=O)N[C@@H](CO)C(=O)N[C@@H](CS)C(=O)N[C@@H](Cc1c[nH]cn1)C(=O)N[C@@H](Cc1c[nH]cn1)C(=O)N[C@@H](C)C(N)=O [Bio96-17] (Biotin-ATGQASSLLGGRLLGQSAASCHHA-NH2)

Compound: CC(C)C[C@H](NC(=O)[C@H](CC(C)C)NC(=O)[C@H](CO)NC(=O)[C@H](CO)NC(=O)[C@H](C)NC(=O)[C@H](CCC(N)=O)NC(=O)CNC(=O)[C@@H](NC(=O)[C@H](C)NC(=O)CCCC[C@@H]1SC[C@@H]2NC(=O)N[C@@H]21)[C@@H](C)O)C(N)=O [Bio96, Biotin-NH2-ATGQASSLL-CONH2] (Biotin-ATGQASSLL-NH2)
- tumor cell arrangement (tumors; H&E staining, tumors from treated mice): looser cell arrangement
- collagen bundles in the tumors (tumors; Masson Trichrome stain, compared to vehicle treated mice): thinner collagen bundles
- mean rate of increase in the tumor volume at day 21 (model-based estimate) ([3]; PBS control 151.1 mm^3 per day): 90.6 mm^3 per day
- mean tumor volume at day 21 (model-based estimate) ([3]; PBS control 1492.1 mm^3): 871.4 mm^3

Compound: Biotin-SYCETWRTEAPSATGQASSLLGGRLLGQSAASCHHAYIVLCIENSFMT-NH2 (cysteines drawn unpaired) [BioE4]
- mean rate of increase in the tumor volume on day 15 (model-based estimate) [4]: significantly (p=0.02) greater in the Control group when compared to the BioE4 group
- mean tumor volume at day 15 (model-based estimate) [4]: significantly (p=0.0001) greater in the Control group when compared to the BioE4 group

— US20240390465A1, “Endostatin Peptides for the Treatment of Tumors, Fibrosis and Acute Lung Injury” (MUSC Foundation for Research Development, priority 2021, published 2024)
